# From patent publication US8153631B2, “Triazole compounds and uses related thereto” (Amgen Inc., priority 2003, dated 2012)
# Counter-ions that a name gives are not always drawn.
# Biological target: T1, human HSD1 (recombinant HSD1) (Homo sapiens, UniProt P28845)
# T1 construct: made in house
# Experiment: In vitro HSD1 activity inhibitory action, SPA of cortisone to cortisol conversion
# Format: biochemical
# Conditions: recombinant human HSD1 0.1 μg/ml, 500 μM NADPH, 16 nM 3H cortisone, room temperature 90 min, read-out: hHSD1 IC50
# Protocol: In Vitro HSD1 (Hydroxysteroid Dehydrogenase 1) Activity Inhibitory Action
# The HSD1 inhibitory activity was examined by quantitative determination by an SPA (scintillation proximity assay) system of the suppressive action on the conversion from cortisone to cortisol using human HSD1 (hereinafter recombinant HSD1) expressed using a baculo-virus system as an enzyme source. For the reaction, a reagent was added to a 96 well plate (96 well Opti-plates™-96 (Packard)) to the following final concentration and a volume of 100 μl was reacted at room temperature for 90 min. The reaction solution used was 0.1 μg/ml recombinant HSD1, 500 μM NADPH, 16 nM ^3H cortisone (Amersham Biosciences, 1.78 Tbq/mol) dissolved in 0.1% BSA (Sigma)-containing PBS and the test drug was 2 μl of a compound solution (dissolved in DMSO). After 90 min, the reaction was stopped by adding PBS (40 μl, containing 0.1% BSA (Sigma)) containing 0.08 μg of anti-cortisol mouse monoclonal antibody (East Coast Biologics), 365 μg SPA PVT mouse antibody-binding beads (Amersham Biosciences) and 175 μM carbenoxolone (Sigma) to the reaction solution. After the completion of the reaction, the plate was incubated overnight at room temperature and the radioactivity was measured by Topcount (Packard). For control, the value (0% inhibition) of the well containing 2 μl of DMSO instead of the test drug was used, and for positive control, the value (100% inhibition) of the well containing carbenoxolone instead of the test drug at the final concentration of 50 μM was used. The inhibition (%) of the test drug was calculated by ((value of control−value of test drug)/(value of control−value of positive control))×100 (%). The IC50 value was analyzed using a computer-based curve fitting soft.
# T1 sequence (P28845 whole entry): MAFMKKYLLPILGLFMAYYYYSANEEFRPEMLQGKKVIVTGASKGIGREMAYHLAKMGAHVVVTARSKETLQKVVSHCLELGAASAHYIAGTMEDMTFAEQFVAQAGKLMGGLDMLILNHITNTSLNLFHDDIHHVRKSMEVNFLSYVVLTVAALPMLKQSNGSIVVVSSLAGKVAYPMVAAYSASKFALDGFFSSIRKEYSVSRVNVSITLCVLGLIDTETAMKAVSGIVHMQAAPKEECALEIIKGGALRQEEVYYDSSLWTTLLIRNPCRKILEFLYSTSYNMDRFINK
row,Structure (SMILES),IC50
1,"Cn1c(C2CCN(c3c(Cl)cncc3Cl)CC2)nnc1C1(c2ccc(Cl)cc2)CC1 [Ex. 1-1, 3′,5′-dichloro-4-(5-(1-(4-chlorophenyl)cyclopropyl)-4-methyl-4H-[1,2,4]triazol-3-yl)-3,4,5,6-tetrahydro-2H-[1,4′]bipyridyl hydrochloride]",10 to 1000 nM
2,Cn1c(C2CCN(c3ncccc3Cl)CC2)nnc1C1(c2ccccc2)CCCC1 [Ex. 1-2],< 10 nM
3,CC(=O)N1CCC(c2nnc(C3(c4ccccc4)CC3)n2C)CC1 [Ex. 1-4],10 to 1000 nM
4,OCCn1c(C2CCN(c3c(Cl)cncc3Cl)CC2)nnc1C1(c2ccccc2)CC1 [Ex. 1-5],< 10 nM
5,NCCn1c(C2CCN(c3c(Cl)cncc3Cl)CC2)nnc1C1(c2ccccc2)CC1 [Ex. 1-6],10 to 1000 nM
6,CC(=O)NCCn1c(C2CCN(c3c(Cl)cncc3Cl)CC2)nnc1C1(c2ccccc2)CC1 [Ex. 1-7],10 to 1000 nM
7,COC(=O)CCn1c(C2CCN(c3c(Cl)cncc3Cl)CC2)nnc1C1(c2ccccc2)CC1 [Ex. 1-8],< 10 nM
8,CNC(=O)CCn1c(C2CCN(c3c(Cl)cncc3Cl)CC2)nnc1C1(c2ccccc2)CC1 [Ex. 1-10],10 to 1000 nM
9,Cn1c(C2(c3ccccc3)CC2)nnc1[C@H]1CC[C@H](Oc2ccc(Cl)cc2Cl)CC1 [Ex. 1-11],10 to 1000 nM
10,Cn1c(C2CCN(Cc3ccc(Cl)cc3Cl)CC2)nnc1C1(c2ccccc2)CC1 [Ex. 1-12],10 to 1000 nM
11,Cn1c(C2CCN(c3c(Cl)cncc3Cl)CC2)nnc1C1(c2ccccc2)CCCC1 [Ex. 1-13],< 10 nM
12,Cn1c(C2CCN(c3ncccc3Cl)CC2)nnc1C1(c2ccccc2)CC1 [Ex. 1-14],< 10 nM
13,Cn1c(C2CCN(c3c(Cl)cncc3Cl)CC2)nnc1C1(c2ccccc2)CC1 [Ex. 1-15],< 10 nM
14,Cn1c(C2CCN(c3c(Cl)cncc3Cl)CC2)nnc1C1(c2ccccc2)CCNCC1 [Ex. 1-16],10 to 1000 nM
15,Cn1c(-c2ccc(Cl)cc2Cl)nnc1C1(c2ccccc2)CC1 [Ex. 1-18],< 10 nM
16,Cn1c(-c2ccc([N+](=O)[O-])cc2Cl)nnc1C1(c2ccccc2)CC1 [Ex. 1-20],< 10 nM
17,CC(=O)Nc1ccc(-c2nnc(C3(c4ccccc4)CC3)n2C)c(Cl)c1 [Ex. 1-21],< 10 nM
18,Cn1c(-c2ccc(NS(C)(=O)=O)cc2Cl)nnc1C1(c2ccccc2)CC1 [Ex. 1-22],< 10 nM
19,Cn1c(-c2ccc(NC(=O)CO)cc2Cl)nnc1C1(c2ccccc2)CC1 [Ex. 1-23],< 10 nM
20,COCC(=O)Nc1ccc(-c2nnc(C3(c4ccccc4)CC3)n2C)c(Cl)c1 [Ex. 1-24],< 10 nM
21,CN(C)CC(=O)Nc1ccc(-c2nnc(C3(c4ccccc4)CC3)n2C)c(Cl)c1 [Ex. 1-25],< 10 nM
22,Cn1c(-c2ccc(N)cc2Cl)nnc1C1(c2ccccc2)CC1 [Ex. 1-26],< 10 nM
23,Cn1c(-c2ccc(N3CCCC3=O)cc2Cl)nnc1C1(c2ccccc2)CC1 [Ex. 1-27],10 to 1000 nM
24,CCCC(=O)Nc1ccc(-c2nnc(C3(c4ccccc4)CC3)n2C)c(Cl)c1 [Ex. 1-28],< 10 nM
25,CC(C)C(=O)Nc1ccc(-c2nnc(C3(c4ccccc4)CC3)n2C)c(Cl)c1 [Ex. 1-29],< 10 nM

row,Structure (SMILES),IC50
1,Cn1c(-c2ccc(NC(=O)N3CCOCC3)cc2Cl)nnc1C1(c2ccccc2)CC1 [Ex. 1-30],< 10 nM
2,Cn1c(-c2ccc(NC(=O)CN3CCOCC3)cc2Cl)nnc1C1(c2ccccc2)CC1 [Ex. 1-31],< 10 nM
3,Cn1c(-c2ccc(NC3CCN(C(=O)OC(C)(C)C)CC3)cc2Cl)nnc1C1(c2ccccc2)CC1 [Ex. 1-32],< 10 nM
4,CN(C)C(=O)Nc1ccc(-c2nnc(C3(c4ccccc4)CC3)n2C)c(Cl)c1 [Ex. 1-33],10 to 1000 nM
5,Cn1c(-c2ccc(NS(N)(=O)=O)cc2Cl)nnc1C1(c2ccccc2)CC1 [Ex. 1-34],< 10 nM
6,Cn1c(-c2ccc(NC(N)=O)cc2Cl)nnc1C1(c2ccccc2)CC1 [Ex. 1-35],< 10 nM
7,Cn1c(-c2ccc(N3CCOC3=O)cc2Cl)nnc1C1(c2ccccc2)CC1 [Ex. 1-36],< 10 nM
8,CCOC(=O)Nc1ccc(-c2nnc(C3(c4ccccc4)CC3)n2C)c(Cl)c1 [Ex. 1-38],< 10 nM
9,Cn1c(-c2ccc(N3CCNC3=O)cc2Cl)nnc1C1(c2ccccc2)CC1 [Ex. 1-39],< 10 nM
10,COC1CCN(C(=O)Nc2ccc(-c3nnc(C4(c5ccccc5)CC4)n3C)c(Cl)c2)CC1 [Ex. 1-40],10 to 1000 nM
11,Cn1c(-c2ccc(NC(=O)N3CCCC(O)C3)cc2Cl)nnc1C1(c2ccccc2)CC1 (stereo not drawn) [Ex. 1-41],10 to 1000 nM
12,Cn1c(-c2ccc(NC(=O)N3CCC(O)CC3)cc2Cl)nnc1C1(c2ccccc2)CC1 [Ex. 1-42],10 to 1000 nM
13,Cn1c(-c2ccc(NC(=O)CN3CCC(O)CC3)cc2Cl)nnc1C1(c2ccccc2)CC1 [Ex. 1-43],10 to 1000 nM
14,Cn1c(-c2ccc(NC(=O)CN3CCCC(O)C3)cc2Cl)nnc1C1(c2ccccc2)CC1 (stereo not drawn) [Ex. 1-44],10 to 1000 nM
15,COC1CCN(CC(=O)Nc2ccc(-c3nnc(C4(c5ccccc5)CC4)n3C)c(Cl)c2)CC1 [Ex. 1-45],10 to 1000 nM
16,Cn1c(-c2ccc(N3CCOCC3)cc2)nnc1C1(c2ccccc2)CC1 [Ex. 1-46],10 to 1000 nM
17,CC(=O)Nc1ccc(-c2nnc(C3(c4ccc(F)cc4)CC3)n2C)c(Cl)c1 [Ex. 1-47],< 10 nM
18,Cn1c(-c2ccc(N3CCNCC3)cc2Cl)nnc1C1(c2ccccc2)CC1 [Ex. 1-48],10 to 1000 nM
19,CC(=O)N1CCN(c2ccc(-c3nnc(C4(c5ccccc5)CC4)n3C)c(Cl)c2)CC1 [Ex. 1-49],< 10 nM
20,Cn1c(-c2ccc(N3CCN(S(C)(=O)=O)CC3)cc2Cl)nnc1C1(c2ccccc2)CC1 [Ex. 1-50],< 10 nM
21,CC(C)C(=O)N1CCN(c2ccc(-c3nnc(C4(c5ccccc5)CC4)n3C)c(Cl)c2)CC1 [Ex. 1-51],< 10 nM
22,Cn1c(-c2ccc(N3CCCCC3)cc2Cl)nnc1C1(c2ccccc2)CC1 [Ex. 1-53],< 10 nM
23,Cn1c(-c2ccc(N3CCC(O)CC3)cc2Cl)nnc1C1(c2ccccc2)CC1 [Ex. 1-54],< 10 nM
24,Cn1c(-c2ccc(N3CCOCC3)cc2Cl)nnc1C1(c2ccc(F)cc2)CC1 [Ex. 1-55],< 10 nM
25,CC1CCN(c2ccc(-c3nnc(C4(c5ccccc5)CC4)n3C)c(Cl)c2)CC1 [Ex. 1-56],< 10 nM

row,Structure (SMILES),IC50
1,Cn1c(-c2ccc(N3CCCC3)cc2Cl)nnc1C1(c2ccccc2)CC1 [Ex. 1-57],< 10 nM
2,COC(=O)C1CCN(c2ccc(-c3nnc(C4(c5ccccc5)CC4)n3C)c(Cl)c2)CC1 [Ex. 1-58],< 10 nM
3,Cn1c(-c2ccc(N3CCC(C(=O)O)CC3)cc2Cl)nnc1C1(c2ccccc2)CC1 [Ex. 1-59],10 to 1000 nM
4,CNC(=O)C1CCN(c2ccc(-c3nnc(C4(c5ccccc5)CC4)n3C)c(Cl)c2)CC1 [Ex. 1-60],< 10 nM
5,Cn1c(-c2ccc(N3CCC4(CC3)OCCO4)cc2Cl)nnc1C1(c2ccccc2)CC1 [Ex. 1-61],10 to 1000 nM
6,COCCOC(=O)C1CCN(c2ccc(-c3nnc(C4(c5ccccc5)CC4)n3C)c(Cl)c2)CC1 [Ex. 1-62],< 10 nM
7,Cn1c(-c2ccc(N3CCC(NC(=O)OC(C)(C)C)CC3)cc2Cl)nnc1C1(c2ccccc2)CC1 [Ex. 1-63],< 10 nM
8,Cn1c(-c2ccc(N3CCC(N)CC3)cc2Cl)nnc1C1(c2ccccc2)CC1 [Ex. 1-64],10 to 1000 nM
9,Cn1c(-c2ccc(N3CCCC(O)C3)cc2Cl)nnc1C1(c2ccccc2)CC1 (stereo not drawn) [Ex. 1-66],< 10 nM
10,COc1ccc(COc2ccc(-c3nnc(C4(c5ccccc5)CC4)n3C)c(Cl)c2)cc1 [Ex. 1-67],< 10 nM
11,Cn1c(-c2ccc(O)cc2Cl)nnc1C1(c2ccccc2)CC1 [Ex. 1-68],< 10 nM
12,Cn1c(-c2ccc(OCC(N)=O)cc2Cl)nnc1C1(c2ccccc2)CC1 [Ex. 1-69],< 10 nM
13,COC(=O)c1ccc(-c2nnc(C3(c4ccccc4)CC3)n2C)c(Cl)c1 [Ex. 1-70],< 10 nM
14,Cn1c(-c2ccc(S(C)(=O)=O)cc2Cl)nnc1C1(c2ccccc2)CC1 [Ex. 1-71],< 10 nM
15,Cn1c(-c2ccc(C(=O)O)cc2Cl)nnc1C1(c2ccccc2)CC1 [Ex. 1-72],10 to 1000 nM
16,Cn1c(-c2ccc(C(N)=O)cc2Cl)nnc1C1(c2ccccc2)CC1 [Ex. 1-73],< 10 nM
17,Cn1c(-c2ccc(C(=O)N3CCOCC3)cc2Cl)nnc1C1(c2ccccc2)CC1 [Ex. 1-74],10 to 1000 nM
18,CNC(=O)c1ccc(-c2nnc(C3(c4ccccc4)CC3)n2C)c(Cl)c1 [Ex. 1-75],< 10 nM
19,COc1ccc(-c2nnc(C3(c4ccccc4)CC3)n2C)c(Cl)c1 [Ex. 1-76],< 10 nM
20,CN(C)C(=O)c1ccc(-c2nnc(C3(c4ccccc4)CC3)n2C)c(Cl)c1 [Ex. 1-77],10 to 1000 nM
21,Cn1c(-c2ccc(C(=O)NCCO)cc2Cl)nnc1C1(c2ccccc2)CC1 [Ex. 1-78],10 to 1000 nM
22,CC(C)NC(=O)c1ccc(-c2nnc(C3(c4ccccc4)CC3)n2C)c(Cl)c1 [Ex. 1-79],10 to 1000 nM
23,Cn1c(-c2ccc(C(=O)N3CCCCC3)cc2Cl)nnc1C1(c2ccccc2)CC1 [Ex. 1-80],10 to 1000 nM
24,Cn1c(-c2ccc(C(=O)N3CCC(O)CC3)cc2Cl)nnc1C1(c2ccccc2)CC1 [Ex. 1-81],10 to 1000 nM
25,Cn1c(-c2ccc(C(=O)NCC(N)=O)cc2Cl)nnc1C1(c2ccccc2)CC1 [Ex. 1-82],< 10 nM
